Values joined by “and” are separate entries in the source; they are usually repeats but may differ in a detail not shown here. Equal entries are not always repeated. ± gives the expanded uncertainty stated by the source.
Key:
[1] = xn = mol fraction of the nth substance listed; details: 100 kPa, Liquid, x2 = 0; for viscosity: Capillary tube (Ostwald / Ubbelohde) method; for mass density: Vibrating tube method
[2] = 293.15 K; 100 kPa; Liquid; Capillary tube (Ostwald / Ubbelohde) method
[3] = 293.15 K; 100 kPa; Liquid; Vibrating tube method
[4] = 298.15 K; 100 kPa; Liquid; Capillary tube (Ostwald / Ubbelohde) method
[5] = 298.15 K; 100 kPa; Liquid; Vibrating tube method
[6] = 303.15 K; 100 kPa; Liquid; Capillary tube (Ostwald / Ubbelohde) method
[7] = 303.15 K; 100 kPa; Liquid; Vibrating tube method
[8] = 308.15 K; 100 kPa; Liquid; Capillary tube (Ostwald / Ubbelohde) method
[9] = 308.15 K; 100 kPa; Liquid; Vibrating tube method
[10] = 313.15 K; 100 kPa; Liquid; Capillary tube (Ostwald / Ubbelohde) method
[11] = 313.15 K; 100 kPa; Liquid; Vibrating tube method
[12] = 318.15 K; 100 kPa; Liquid; Capillary tube (Ostwald / Ubbelohde) method
[13] = 318.15 K; 100 kPa; Liquid; Vibrating tube method
[14] = 323.15 K; 100 kPa; Liquid; Capillary tube (Ostwald / Ubbelohde) method
[15] = 323.15 K; 100 kPa; Liquid; Vibrating tube method

Row | Compound | viscosity [2] [mPa·s] | mass density [3] [kg/m3] | viscosity [4] [mPa·s] | mass density [5] [kg/m3] | viscosity [6] | mass density [7] [kg/m3] | viscosity ([1]; 293.15 K) [mPa·s] | mass density ([1]; 293.15 K) [kg/m3] | viscosity ([1]; 298.15 K) [mPa·s] | mass density ([1]; 298.15 K) [kg/m3] | viscosity ([1]; 303.15 K) [mPa·s] | mass density ([1]; 303.15 K) [kg/m3] | viscosity ([1]; 308.15 K) [mPa·s] | mass density ([1]; 308.15 K) [kg/m3] | viscosity ([1]; 313.15 K) [mPa·s] | mass density ([1]; 313.15 K) [kg/m3] | viscosity ([1]; 318.15 K) [mPa·s] | mass density ([1]; 318.15 K) [kg/m3] | viscosity ([1]; 323.15 K) [mPa·s] | mass density ([1]; 323.15 K) [kg/m3] | also measured
1 | CCC[n+]1ccn(C)c1C.O=S(=O)([N-]S(=O)(=O)C(F)(F)F)C(F)(F)F | 121.7 ± 3 | 1459.14 ± 12 | 92.8 ± 2.1 | 1454.44 ± 12 | 72.1 ± 1.6 mPa·s and 71.1 ± 1.5 mPa·s | 1449.72 ± 12 | – | – | – | – | – | – | – | – | – | – | – | – | – | – | viscosity [8]: 57.76 ± 1.2 mPa·s; mass density [9]: 1445 ± 12 kg/m3; viscosity [10]: 46.53 ± 0.98 mPa·s; mass density [11]: 1440.28 ± 12 kg/m3; viscosity [12]: 38.4 ± 0.81 mPa·s; mass density [13]: 1435.57 ± 11 kg/m3; viscosity [14]: 31.89 ± 0.67 mPa·s; mass density [15]: 1430.87 ± 11 kg/m3
2 | CCn1cc[n+](C)c1C.O=S(=O)([N-]S(=O)(=O)C(F)(F)F)C(F)(F)F | – | – | – | – | – | – | – | – | – | – | – | – | – | – | – | – | – | – | – | – | viscosity (293.15 K; 100 kPa; Metastable liquid; Capillary tube (Ostwald / Ubbelohde) method): 89.27 ± 2 mPa·s; mass density (293.15 K; 100 kPa; Metastable liquid; Vibrating tube method): 1496.32 ± 12 kg/m3; viscosity (298.15 K; 100 kPa; Metastable liquid; Capillary tube (Ostwald / Ubbelohde) method): 70.77 ± 1.5 mPa·s; mass density (298.15 K; 100 kPa; Metastable liquid; Vibrating tube method): 1491.47 ± 12 kg/m3; viscosity (303.15 K; 100 kPa; Capillary tube (Ostwald / Ubbelohde) method; Liquid): 57.02 ± 1.2 mPa·s; mass density (303.15 K; 100 kPa; Vibrating tube method; Liquid): 1486.67 ± 12 kg/m3; viscosity (308.15 K; 100 kPa; Capillary tube (Ostwald / Ubbelohde) method; Liquid): 46.6 ± 0.98 mPa·s; mass density (308.15 K; 100 kPa; Vibrating tube method; Liquid): 1481.87 ± 12 kg/m3; viscosity (313.15 K; 100 kPa; Capillary tube (Ostwald / Ubbelohde) method; Liquid): 38.62 ± 0.81 mPa·s; mass density (313.15 K; 100 kPa; Vibrating tube method; Liquid): 1477.09 ± 12 kg/m3; viscosity (318.15 K; 100 kPa; Capillary tube (Ostwald / Ubbelohde) method; Liquid): 32.33 ± 0.68 mPa·s; mass density (318.15 K; 100 kPa; Vibrating tube method; Liquid): 1472.32 ± 12 kg/m3; viscosity (323.15 K; 100 kPa; Capillary tube (Ostwald / Ubbelohde) method; Liquid): 27.06 ± 0.57 mPa·s; mass density (323.15 K; 100 kPa; Vibrating tube method; Liquid): 1467.56 ± 12 kg/m3
3 | O=C1CCCO1 [γ-butyrolactone] + CCCCn1cc[n+](C)c1C.O=S(=O)([N-]S(=O)(=O)C(F)(F)F)C(F)(F)F | – | – | – | – | – | – | 1.86 ± 0.04 | 1129.49 ± 9 | 1.71 ± 0.04 | 1124.59 ± 9 | 1.58 ± 0.03 | 1119.68 ± 9 | 1.47 ± 0.03 | 1114.78 ± 8.9 | 1.37 ± 0.03 | 1109.87 ± 8.9 | 1.28 ± 0.03 | 1104.96 ± 8.8 | 1.2 ± 0.03 | 1100.05 ± 8.8 | –
4 | O=C1CCCO1 [γ-butyrolactone] + CCC[n+]1ccn(C)c1C.O=S(=O)([N-]S(=O)(=O)C(F)(F)F)C(F)(F)F | – | – | – | – | – | – | 1.86 ± 0.04 | 1129.49 ± 9 | 1.71 ± 0.04 | 1124.59 ± 9 | 1.58 ± 0.03 | 1119.68 ± 9 | 1.47 ± 0.03 | 1114.78 ± 8.9 | 1.37 ± 0.03 | 1109.87 ± 8.9 | 1.28 ± 0.03 | 1104.96 ± 8.8 | 1.2 ± 0.03 | 1100.05 ± 8.8 | –
5 | O=C1CCCO1 [γ-butyrolactone] + CCn1cc[n+](C)c1C.O=S(=O)([N-]S(=O)(=O)C(F)(F)F)C(F)(F)F | – | – | – | – | – | – | 1.86 ± 0.04 | 1129.49 ± 9 | 1.71 ± 0.04 | 1124.59 ± 9 | 1.58 ± 0.03 | 1119.68 ± 9 | 1.47 ± 0.03 | 1114.78 ± 8.9 | 1.37 ± 0.03 | 1109.87 ± 8.9 | 1.28 ± 0.03 | 1104.96 ± 8.8 | 1.2 ± 0.03 | 1100.05 ± 8.8 | –
6 | CCCCn1cc[n+](C)c1C.O=S(=O)([N-]S(=O)(=O)C(F)(F)F)C(F)(F)F | 133.59 ± 3.4 | 1423.72 ± 11 | 101.34 ± 2.4 | 1419.13 ± 11 | 77.86 ± 1.7 mPa·s | 1414.52 ± 11 | – | – | – | – | – | – | – | – | – | – | – | – | – | – | viscosity [8]: 61.73 ± 1.3 mPa·s; mass density [9]: 1409.91 ± 11 kg/m3; viscosity [10]: 49.77 ± 1 mPa·s; mass density [11]: 1405.31 ± 11 kg/m3; viscosity [12]: 40.7 ± 0.85 mPa·s; mass density [13]: 1400.7 ± 11 kg/m3; viscosity [14]: 33.69 ± 0.71 mPa·s; mass density [15]: 1396.13 ± 11 kg/m3
